Experiment [1] relates to Klebsiella pneumoniae (KLEPNEP) strains. Nature of the experiment: MIC assays of CTX, CCX, CAZ, CCZ, microbroth dilution (CLSI). The class given is cell-based. How it is done: (§1) MIC Assays of CTX (cefotaxime), […] (cefotaxime/clavulanic acid), CAZ (ceftazidime) and CCZ (ceftazidime/clavulanic acid) were performed by microbroth dilution method according to the CLSI (Clinical and Laboratory Standards Institute) standard.
Background: In broth dilution the organism is exposed to a series of concentrations in liquid medium.

The next experiment concerns E. coli (ESCCOL) strains. The description is as above. Type of experiment: cell-based. The following applies: Escherichia coli. How it is done: as §1
The subject of the next experiment is ESBLs. In words: Beta-lactamase inhibition at certain concentrations. Type of experiment: biochemical.
For experiment [2], the system named is original-spectrum beta-lactamases (OSBLs). Described as above. Type of experiment: biochemical.
The next experiment has as its system class C beta-lactamases. The experiment is described as above. Type of experiment: biochemical.
For another experiment, the system named is class A beta-lactamases. Described as above. The class given is biochemical.
The subject of experiment [3] is E. coli strains. In words: Cefoxitin MIC assay, microbroth dilution (CLSI). Type of experiment: cell-based. How it is done:
Cefoxitin MIC Assay were performed by microbroth dilution method according to the CLSI (Clinical and Laboratory Standards Institute) standard.

The subject of experiment [4] is E. coli strains. Nature of the experiment: Lysis testing on Phoenix panel, nitrocefin hydrolysis rate. More on the design: unit not given here. Type of experiment: cell-based. The following applies: without vs with lysis reagent. How it is done: (§2) Stock solutions with nitrocefin, trehalose, and/or reagents used to lyse the bacterial cells in pH6 MES buffer were prepared and dispensed into wells on the bottom part of Phoenix™ panel (BD, USA), with one stock solution in one well. Panels were then dried in an oven for approximately 30 min at approximately 70° C. The top part of Phoenix panel was then attached to the bottom part forming a panel system ready for inoculation. The concentrations of reagents after rehydration following Phoenix panel inoculation were 3 mg/ml lysozyme, 1 mM EDTA, and 1% trehalose in 0.1M pH6 MES buffer.
(§3) Representative strains of bacteria, such as E. coli and Klebsiella pneumoniae, were each streaked on a Trypticase™ Soy Agar with 5% Sheep Blood agar plate (BD, USA) and the plates were incubated at 35° C. for 18 hours. Afterwards, colonies from pure culture on each plate were inoculated into BD Phoenix ID broth (BD, USA) and adjusted to a desired turbidity of approximately 0.5 MacFarland. The bacterial cell suspension was then poured into the ID side of the Phoenix panels that were specifically made for cell lysis testing. Once inoculated, the panel was loaded into Phoenix instrument, where nitrocefin hydrolysis rate was monitored by colorimetric signals changes every 20 minutes for 16 hours.

For experiment [5], the system named is Klebsiella pneumoniae strains. The description is as above. The class given is cell-based. Also on record: unit not given here. Conditions: without vs with lysis reagent. How it is done:
as §2, §3

Where [6] appears, read: KLEPNEP strain 7 of Table 20 (ESBL), read-out: MIC.
[7] abbreviates: KLEPNEP strain 8 of Table 20 (OSBL), read-out: MIC.
[8] abbreviates: KLEPNEP strain 9 of Table 20 (OSBL), read-out: MIC.
Where [9] appears, read: KLEPNEP strain 10 of Table 20 (WT), read-out: MIC.
The mark [10] stands for this setting: ESCCOL strain 2 of Table 20 (ESBL), read-out: MIC.
The mark [11] stands for this setting: ESCCOL strain 3 of Table 20 (OSBL), read-out: MIC.
The mark [12] stands for this setting: ESCCOL strain 4 of Table 20 (OSBL), read-out: MIC.
Where [13] appears, read: ESCCOL strain 5 of Table 20 (WT), read-out: MIC.

Converted amounts (≈) assume the structure as drawn. Where two headings read alike, the source gives them in different places.

As to `CO/N=C(\C(=O)N[C@@H]1C(=O)N2C(C(=O)O)=C(COC(C)=O)CS[C@H]12)c1csc(N)n1` [CTX, cefotaxime], the MIC (in general, the least concentration at which growth counts as inhibited) in experiment [1] (KLEPNEP strain 6 of Table 20 (ESBL), read-out: MIC) is more than 64 µg/mL; in [1] (setting [6]), more than 64 µg/mL; in experiment [1] (setting [7]), not above 0.25 µg/mL; in experiment [1] (setting [8]), not above 0.25 µg/mL; in experiment [1] (setting [9]) it was 0.5 µg/mL (≈ 1.1 µM); with E. coli (ESCCOL) strains (ESCCOL strain 1 of Table 20 (ESBL), read-out: MIC), 32 µg/mL (≈ 70.3 µM). Besides, the MIC in the experiment on E. coli (ESCCOL) strains (setting [10]) was more than 64 µg/mL; with E. coli (ESCCOL) strains (setting [11]), not above 0.25 µg/mL; in the experiment with E. coli (ESCCOL) strains (setting [12]) it was not above 0.25 µg/mL; with E. coli (ESCCOL) strains (setting [13]), not above 0.25 µg/mL.
Take `O=C(O)[C@H]1/C(=C/CO)O[C@@H]2CC(=O)N21` [clavulanic acid]: in the experiment on ESBLs, the “inhibition of ESBLs” value is reported as “inhibits”. Besides, in [2], the “inhibition of OSBLs” value is on record as “inhibits”.
On to `CC(C)(O/N=C(\C(=O)N[C@@H]1C(=O)N2C(C(=O)[O-])=C(C[n+]3ccccc3)CS[C@H]12)c1csc(N)n1)C(=O)O` [CAZ, ceftazidime], for which the MIC in [1] is more than 128 µg/mL; in experiment [1] (setting [6]), 8 µg/mL (≈ 14.6 µM); in experiment [1] (setting [7]), not above 0.25 µg/mL; in experiment [1] (setting [8]), not above 0.25 µg/mL; in experiment [1] (setting [9]) it was not above 0.25 µg/mL; against E. coli (ESCCOL) strains it was more than 128 µg/mL. In addition, the MIC was 16 µg/mL (≈ 29.3 µM) in the experiment on E. coli (ESCCOL) strains (setting [10]), not above 0.25 µg/mL with E. coli (ESCCOL) strains (setting [11]), not above 0.25 µg/mL in the experiment on E. coli (ESCCOL) strains (setting [12]) and not above 0.25 µg/mL with E. coli (ESCCOL) strains (setting [13]).
`Cc1onc(-c2ccccc2Cl)c1C(=O)N[C@@H]1C(=O)N2[C@@H]1SC(C)(C)[C@@H]2C(=O)O` [cloxacillin]: the “inhibition of class C beta-lactamases” value with class C beta-lactamases is given as “inhibits”. Also, the “inhibition of class A beta-lactamases” value in the experiment with class A beta-lactamases is reported as “inhibits”.
In the case of `CO[C@@]1(NC(=O)Cc2cccs2)C(=O)N2C(C(=O)O)=C(COC(N)=O)CS[C@@H]21` [Cefoxitin], the Cefoxitin MIC in the experiment on E. coli strains [3] (E. coli strain 1 of Table 18 (WT)) was not above 4 µg/mL; in the experiment with E. coli strains [3] (E. coli strain 2 of Table 18 (OSBL, C-plasmid)) it was more than 32 µg/mL; in the experiment on E. coli strains [3] (E. coli strain 3 of Table 18 (OSBL, C-chromo)), more than 32 µg/mL; in the experiment on E. coli strains [3] (E. coli strain 4 of Table 18 (OSBL)), 32 µg/mL; in the experiment with E. coli strains [3] (E. coli strain 5 of Table 18 (ESBL, C-plasmid)), more than 32 µg/mL; with E. coli strains [3] (E. coli strain 6 of Table 18 (ESBL, C-chromo)), “=32”. Also, the “Cefoxitin MIC” value with E. coli strains [3] (E. coli strain 7 of Table 18 (ESBL)) is “=8”; in the experiment on E. coli strains [3] (E. coli strain 8 of Table 18 (C-chromo)), more than 32 µg/mL; in the experiment with E. coli strains [3] (E. coli strain 9 of Table 18 (Carbapenemase)), more than 32 µg/mL; in the experiment with E. coli strains [3] (E. coli strain 10 of Table 18 (C-plasmid)), more than 32 µg/mL; in the experiment with E. coli strains [3] (E. coli strain 11 of Table 18 (OSBL, C-plasmid)), more than 32 µg/mL.
For `O=C(Cc1cccs1)N[C@@H]1C(=O)N2C(C(=O)O)=C(/C=C/c3ccc([N+](=O)[O-])cc3[N+](=O)[O-])CS[C@H]12` [NCF, 3-[2,4-dinitrostyryl]-7-(2-thienylacetamido]3-cephem-4-carobxylic acid], the “NCF activity (maximum nitrocefin hydrolysis rate within 10 hrs)” value (“NCF activity” for short) is given as 1.9 with E. coli strains [4] (E. coli sample 1, intracellular beta-lactamase +); 2.1 in the experiment with E. coli strains [4] (E. coli sample 2, intracellular beta-lactamase +); 2.3 in the experiment on E. coli strains [4] (E. coli sample 3, intracellular beta-lactamase +); 1.9 in the experiment with E. coli strains [4] (E. coli sample 4, intracellular beta-lactamase +); 8.2 in the experiment on E. coli strains [4] (E. coli sample 5, intracellular beta-lactamase +); 7.2 with E. coli strains [4] (E. coli sample 6, intracellular beta-lactamase +). Moreover, the “NCF activity” value was found to be 6.8 with E. coli strains [4] (E. coli sample 7, intracellular beta-lactamase +); 1.7 in the experiment on E. coli strains [4] (E. coli sample 8, intracellular beta-lactamase −); 1.3 in experiment [5] (Klebsiella pneumoniae sample 9, intracellular beta-lactamase +); 3.3 in [5] (Klebsiella pneumoniae sample 10, intracellular beta-lactamase +); 3.9 in experiment [5] (Klebsiella pneumoniae sample 11, intracellular beta-lactamase +); 2.6 in experiment [5] (Klebsiella pneumoniae sample 12, intracellular beta-lactamase +). The “NCF activity” value in experiment [5] (Klebsiella pneumoniae sample 13, intracellular beta-lactamase +) was 6.7; in experiment [5] (Klebsiella pneumoniae sample 14, intracellular beta-lactamase +), 7.5; in [5] (Klebsiella pneumoniae sample 15, intracellular beta-lactamase +), 9.1; in experiment [5] (Klebsiella pneumoniae sample 16, intracellular beta-lactamase −) it was 1.2.

(Values after patent US10704079B2, “Methods for the detection of beta-lactamases in a sample” (priority 2007, dated 2020).)
